Values after ≈ are worked out from the molar mass of the structure shown.
Legend:
[1] = Ophthalmic formulations based on in situ salt formation technology: composition and state (Example 8); format: physicochemical; details: pH ~7
From the text: (§1) In the following ophthalmic formulation preparation examples, "solution" refers to a clear, transparent liquid without visible insoluble matter. "Near-clear solution" refers to a liquid that appears close to a solution upon visual observation but may contain a small amount of insoluble particles or have a slightly opaque color. "Suspension" refers to a liquid that is visibly turbid or opaque. "Gel" refers to a completely or partially gel-like solid.
Example 8: Ophthalmic Formulation Based on In Situ Salt Formation Technology
Therefore, by preparing ophthalmic formulation compositions based on in situ salt formation technology, the solubility of the compounds can be further improved.
According to the formulation composition shown in the table below, weigh the compound powder, add 50% of the total volume (v/v) of a 30% (w/v) aqueous solution of hydroxypropyl-β-cyclodextrin (containing surfactant), and disperse by sonication; next, add an appropriate volume of pH regulator and sonicate until clear; then, add an equal volume of buffer containing solubilizer, viscosity modifier, etc., for dilution, and immediately vortex to mix; finally, add an appropriate volume of alkali regulator to adjust the solution pH to approximately 7, to prepare an eye drop formulation.
Using the in situ salt formation method, the compound is first dispersed in a solution containing Hydroxypropyl-β-cyclodextrin, then different acids are added to adjust the pH to 3-5, allowing the compound to fully or nearly fully dissolve, followed by adding the remaining components and adjusting the pH to approximately 7. […] Based on the visual dissolution effect after acid addition, methanesulfonic acid, acetic acid, and lactic acid were preliminarily selected as pH regulators. The preliminarily selected acids were used in subsequent tests with higher compound concentrations. Table 18 Formulation Composition and State

[2] = Thermodynamic solubility test; format: physicochemical; details: buffer solution, aqueous buffer, thermodynamic from solid; thermodynamic solubility, room temperature, 8 hours shaking; buffers pH 2.0, 6.5, 7.4 used, pH of the tabulated value not given
Procedure: Solubility Test of Compounds
Table 9. Reagents and Instruments
After sonication for 10 minutes, they were fixed on a shaker and shaken at room temperature for 8 hours. After shaking, they were sonicated for 10 minutes and centrifuged at 13000 rpm for 15 minutes. 0.1 mL of supernatant was aspirated into a new tube, rinsed with 5 mL of buffer by shaking, and the liquid was discarded. 0.5 mL of supernatant was transferred again to a new tube, centrifuged at 13000 rpm for 15 minutes, and the supernatant was taken (diluted with water if necessary) for LC-MS injection analysis. Sample concentrations were quantified using a 3-5 point calibration curve.

melanin = test: Compound binding to melanin; format: in vitro ADME; details: cuttlefish (Sepia officinalis), melanin suspension (1 mg/mL), percentage of free drug (not bound to melanin), 2 µM compound, melanin 1 mg/mL in PBS pH 7.4, 37°C
From the text: Detection of Compound Binding to Melanin
Pigmented ocular tissues contain melanin within intracellular melanosomes. Drugs bind to melanin to varying degrees, from no binding to extensive binding. Therefore, melanin binding is an important characteristic affecting ocular drug delivery and biodistribution. The ability of compounds to bind to melanin must be considered in ocular drug development.
Melanin derived from cuttlefish (Sepia officinalis) melanin was purchased from Sigma Aldrich (St Louis, MO).
First, prepare a 1 mg/mL melanin suspension in PBS (pH 7.4). As a matrix washing step, suspended particles were centrifuged at 3000 rpm for 5 minutes. The resulting pellet was resuspended in fresh PBS buffer, heated to 37°C with continuous shaking, and incubated for 1 hour. Accurately pipette 2 microliters of test compound stock solution (0.1 mM) into 98 microliters of melanin suspension (1 mg/mL), resulting in a final incubation concentration of 2 µM. Similarly, accurately pipette 2 microliters of stock solution (0.1 mM) into 98 microliters of PBS buffer (containing 0.1% BSA) as a blank control sample. Samples were incubated at 37°C for 2 hours on a shaker (80-90 rpm). Then centrifuged at room temperature. 50 microliters of supernatant was aspirated and added to 50 microliters of precipitation agent (containing internal standard). All samples above were subjected to protein precipitation, centrifuged, the supernatant was taken, diluted with water (if necessary), and then injected for analysis. Simultaneously, high-binding compounds Sunitinib and chloroquine, and the low-binding compound celecoxib were measured as positive controls. An LC-MS/MS analytical method for determining compound concentration was established. The ratio of analyte/internal standard peak areas (Aanalyte/AIS) measured in the samples, calibrated by the dilution factor, was used as the surrogate concentration for data processing. The binding rate of the compound to melanin (Fb) is calculated by the formula: Fb = 100−(Ctest)/(Ccontrol) × 100% [formula]
Ctest is the drug concentration of the compound in the melanin incubation sample or the peak area ratio of the test compound to the internal standard. Ccontrol is the drug concentration of the compound in the blank control sample or the peak area ratio of the test compound to the internal standard. Percentage of free drug (Fu%) = 100 - Fb The binding rates of the compounds of the present invention to melanin are shown in the table below: Table 11. Binding Rate of Compounds to Melanin

[3] = Ophthalmic formulations based on polyethylene glycol series vehicles: composition and state (Example 7); format: physicochemical
From the text: as §1
Example 7: Ophthalmic Formulations Based on Polyethylene Glycol Series Vehicles
According to the formulation composition shown in the tables below, weigh the compound powder, add it to polyethylene glycol 400, and sonicate until dissolved or nearly dissolved (heat to 50°C if necessary). Add this to a Tris-HCl buffer solution containing hydroxypropyl-β-cyclodextrin, poloxamer 188, and gellan gum (or other viscosity modifier), vortex to mix, and prepare into an eye drop formulation.

EGFR = target: T1, EGFR (Homo sapiens, UniProt P00533); test: Kinase inhibitory activity, Mobility Shift Assay (EGFR); format: biochemical
T1 construct: purchased Carna 08-115
Procedure: Assay for Inhibitory Activity of Compounds Against VEGFR and EGFR Kinases
This assay directly monitors the inhibitory activity of compounds on kinase phosphorylation by measuring non-phosphorylated and phosphorylated substrates in the kinase reaction using Mobility Shift Assays/IMAP™ analysis. Table 2. Reagents and Instruments
Kinase and DTT were added to 1X kinase buffer to form a 2.5X kinase solution; 10 µL of the 2.5X kinase solution was transferred to a 384-well reaction plate, and 1X kinase buffer was added to the negative control wells. The plate was incubated at room temperature for 10 minutes; FAM-labeled peptide, MgCl2, ATP, and other reagents were added to 1X kinase buffer to form a 2.5X substrate solution; 10 µL of the above 2.5X substrate solution was transferred to the 384-well reaction plate; the plate was incubated at 28°C for varying times, and then 25 µL of stop solution was added to the 384-well reaction plate to terminate the reaction. Conversion rate data were read on a CaliperEZ Reader II. […] IC50 values were fitted using XLFit excel add-in version 5.4.0.8. Y = Bottom + (Top−Bottom)/(1 + […]) [formula]
X is the log value of compound concentration, Y is the inhibition rate (% inhibition).

[4] = Table 13: 1mg/ml, Polyethylene glycol 400 5, Hydroxypropyl-β-cyclodextrin 10, Tris-HCl buffer (pH 8.3) 50mM, Carbomer 0.48, Poloxamer 188 1
[5] = Table 14: 5mg/ml, Polyethylene glycol 400 10, Hydroxypropyl-β-cyclodextrin 10, Gellan Gum Gelrite 0.3, Poloxamer 188 1, 0.5 M Tris solution 2, 0.1 M Citric acid 1
[6] = Table 15: 10 mg/mL, Polyethylene glycol 400 10, Hydroxypropyl-β-cyclodextrin 10, Gellan Gum Gelrite 0.3, Poloxamer 188 1, Tris solution and Citric acid
[7] = Table 16: 2 mg/mL, Polyethylene Glycol 400 5, Poloxamer 188 1, Hydroxypropyl-β-cyclodextrin 6, Gellan Gum Gelrite 0.15, Tris-HCl Buffer (pH 6.8) 25mM

T1 sequence (P00533 25-1210): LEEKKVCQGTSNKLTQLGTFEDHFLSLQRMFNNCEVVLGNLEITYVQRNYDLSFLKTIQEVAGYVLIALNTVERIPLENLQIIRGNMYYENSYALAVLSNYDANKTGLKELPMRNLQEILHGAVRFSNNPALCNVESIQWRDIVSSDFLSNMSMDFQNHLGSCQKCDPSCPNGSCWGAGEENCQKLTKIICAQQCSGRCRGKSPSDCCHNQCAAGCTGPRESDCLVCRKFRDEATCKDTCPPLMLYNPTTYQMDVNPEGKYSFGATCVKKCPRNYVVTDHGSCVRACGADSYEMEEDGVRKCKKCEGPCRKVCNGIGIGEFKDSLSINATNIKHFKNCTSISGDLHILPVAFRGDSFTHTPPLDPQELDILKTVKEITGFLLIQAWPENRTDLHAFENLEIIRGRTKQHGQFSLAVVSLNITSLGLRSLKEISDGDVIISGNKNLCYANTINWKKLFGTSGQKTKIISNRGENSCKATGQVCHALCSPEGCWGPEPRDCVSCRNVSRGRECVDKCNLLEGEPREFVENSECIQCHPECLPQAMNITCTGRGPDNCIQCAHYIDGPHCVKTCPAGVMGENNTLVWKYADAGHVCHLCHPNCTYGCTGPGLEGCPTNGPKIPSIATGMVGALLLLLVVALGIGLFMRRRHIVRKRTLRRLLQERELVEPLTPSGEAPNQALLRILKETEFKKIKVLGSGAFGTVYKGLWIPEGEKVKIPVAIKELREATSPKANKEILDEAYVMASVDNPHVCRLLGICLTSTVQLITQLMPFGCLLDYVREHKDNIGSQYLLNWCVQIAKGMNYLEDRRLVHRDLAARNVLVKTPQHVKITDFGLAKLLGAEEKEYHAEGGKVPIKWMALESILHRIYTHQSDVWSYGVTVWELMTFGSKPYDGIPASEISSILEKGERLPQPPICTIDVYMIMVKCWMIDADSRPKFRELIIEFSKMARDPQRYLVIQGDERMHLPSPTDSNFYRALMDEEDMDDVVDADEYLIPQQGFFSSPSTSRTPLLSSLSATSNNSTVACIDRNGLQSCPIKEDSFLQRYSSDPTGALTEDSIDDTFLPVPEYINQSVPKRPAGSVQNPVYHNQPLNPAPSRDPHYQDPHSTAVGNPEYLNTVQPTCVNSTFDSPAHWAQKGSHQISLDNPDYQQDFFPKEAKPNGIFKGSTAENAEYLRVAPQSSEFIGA

Row | Structure (SMILES) | solubility at 8 h [2] [µg/mL] | fraction unbound at 2 h, 2 µM (melanin) | State Description: pH [3, 6] | State Description: state [3, 6] | Osmolality (mOsm/kg) [3, 7] [mOsm/kg] | State Description: pH [3, 7] | State Description: state [3, 7] | also measured
1 | O=C(NC1CC1)c1ccccc1Sc1ccc2c(/C=C/c3cc(OCCN4CCCC4)ccn3)n[nH]c2c1 [Compound I-110, N-cyclopropyl-2-({3-[(E)-2-{4-[2-(pyrrolidin-1-yl)ethoxy]pyridin-2-yl}ethenyl]-1H-indazol-6-yl}sulfanyl)benzamide] |  |  |  |  |  |  |  | State Description ([1]; Table 20, Compound 10 mg/ml, 1M Methanesulfonic Acid 2%, Polyoxyethylene castor oil EL 1%, 0.5M Tris 2%): near-clear solution; State Description ([1]; Table 20, Compound 20 mg/ml, 1M Methanesulfonic Acid 4%, Polyoxyethylene castor oil EL 1%, 0.5M Tris 2%): near-clear solution
2 | CCN(CC)Cc1ccc(/C=C/c2n[nH]c3cc(Sc4ccc(F)cc4C(=O)NC4CC4)ccc23)nc1 [Compound I-84, N-cyclopropyl-5-fluoro-2-({3-[(E)-2-{5-[(diethylamino)methyl]pyridin-2-yl}ethenyl]-1H-indazol-6-yl}thio)benzamide] | 599 (≈ 1160 µM) | > 0.05 | ~5.5 | gel | ~300 | ~7 | solution | State Description: pH [3, 4]: ~5; State Description: state [3, 4]: homogeneous suspension; State Description: pH [3, 5]: ~7.5; State Description: state [3, 5]: near-clear solution
3 | CCNC(=O)c1ccccc1Sc1ccc2c(/C=C/c3ccc(CN(CC)CC)cn3)n[nH]c2c1 [Compound I-86, 2-({3-[(E)-2-{5-[(diethylamino)methyl]pyridin-2-yl}ethenyl]-1H-indazol-6-yl}thio)-N-ethylbenzamide] | 1130 (≈ 2320 µM) | 0.01 to 0.05 | ~5.5 | near-clear solution | ~300 | ~7 | solution | 
4 | O=C(NC1CC1)c1cccc(F)c1Sc1ccc2c(/C=C/c3ccc(CN4CCCC4)cn3)n[nH]c2c1 [Compound I-67, N-cyclopropyl-3-fluoro-2-({3-[(E)-2-{5-[(pyrrolidin-1-yl)methyl]pyridin-2-yl}ethenyl]-1H-indazol-6-yl}thio)benzamide] | 118 (≈ 230 µM) | > 0.05 |  |  |  | ~7 | solution | State Description ([1]; Table 19, Compound 5 mg/ml, 1M Benzenesulfonic Acid 1%, no Polyoxyethylene castor oil EL, no alkali added): solution; State Description ([1]; Table 19, Compound 5 mg/ml, 1M Methanesulfonic Acid 1%, Polyoxyethylene castor oil EL 1%, 0.5M Tris 0.5%): solution; State Description ([1]; Table 19, Compound 5 mg/ml, 1M Methanesulfonic Acid 1%, no Polyoxyethylene castor oil EL, 0.5M Tris 0.5%): near-clear solution; State Description ([1]; Table 19, Compound 10 mg/ml, 1M Acetic Acid 2%, no Polyoxyethylene castor oil EL, 0.5M Tris 1%): solution; State Description ([1]; Table 19, Compound 10 mg/ml, 1M Lactic Acid 2%, no Polyoxyethylene castor oil EL, 0.5M Tris 1%): solution; State Description ([1]; Table 19, Compound 20 mg/ml, 1M Methanesulfonic Acid 4%, Polyoxyethylene castor oil EL 1%, 0.5M Tris 1.5%): near-clear solution
5 | CCNC(=O)c1cc(F)ccc1Sc1ccc2c(/C=C/c3cnn(CCCN4CCCC4)c3)n[nH]c2c1 [Compound I-104, N-ethyl-5-fluoro-2-({3-[(E)-2-{1-[3-(pyrrolidin-1-yl)propyl]-1H-pyrazol-4-yl}ethenyl]-1H-indazol-6-yl}sulfanyl)benzamide] | 2180 (≈ 4200 µM) | > 0.05 |  |  | ~300 | ~7 | solution | IC50 (EGFR): > 60 µM
6 | CCNC(=O)c1cccc(F)c1Sc1ccc2c(/C=C/c3ccc(CN4CCCC4)cn3)n[nH]c2c1 [Compound I-75, N-ethyl-3-fluoro-2-({3-[(E)-2-{5-[(pyrrolidin-1-yl)methyl]pyridin-2-yl}ethenyl]-1H-indazol-6-yl}sulfanyl)benzamide] |  |  |  |  |  | ~7 | solution | 
